# In US20110306622A1, “METHODS OF TREATING HEMATOLOGICAL DISORDERS WITH QUINAZOLINONE COMPOUNDS IN SELECTED SUBJECTS” (Calitoga Pharmaceuticals, Inc., priority 2010, published 2011):
# What was measured:
# [1] = tested on: CCL3, CCL4 and CXCL13 chemokine levels in CLL patients; test: Plasma chemokine levels in CLL patients before and after one 28-day cycle of treatment (multiplexed bead suspension arrays); assay type: in vivo, human
# Experimental: Plasma was stored at −70 degrees centigrade. Before analysis, samples were thawed overnight at 4 degrees centigrade and centrifuged at 1,500×g to remove debris. Chemokines were analyzed with commercially available multiplexed bead suspension arrays (MBA, Millipore). MBAs were analyzed using a Luminex 200 instrument and data was organized and analyzed using 3.1 xPONENT software. The plasma concentration of 14 patients with CLL was assessed at pre-dose baseline concentrations. The average plasma concentration of CCL3 (186 pg/mL) and CCL4 (303 pg/mL) at the pre-dose baseline are approximately 5 times higher in these subject compared to normal subjects. The average plasma concentration of CXCL13 (316 pg/mL) at pre-dose baseline was approximately 10 times higher than normal subjects. […] In the first week of dosing across all dose levels evaluated, the concentration of CCL3, CCL4 and CXCL13 were decreased by 2 to 5-fold. On the last day of the cycle, the plasma concentration of the chemokines was reassessed, see FIG. 1.
# [2] = tested on: CCL3, CCL17 and TNF-alpha in CLL patients; test: Clinical evaluation in CLL patients: change in plasma CCL3, CCL17 and TNF-alpha compared to decrease in lymph node size; assay type: in vivo, human; conditions: responders = lymph node decreases of 50% or greater, FIG. 10
# Experimental: The concentration of CCL3, CCL17 and TNF-alpha were determined in the plasma samples by a bead-based ELISA technology. The resulting plasma concentrations of these factors were compared to decrease in lymph node size. Patients that had lymph node decreases of 50% or greater were designated as “responders” to the drug.
# [3] = tested on: CCL17, CCL22, CXCL13 and TNF-alpha levels in MCL patients; test: Plasma chemokine and TNF-alpha levels and tumor size in MCL patients, pre-treatment vs Day 28; assay type: in vivo, human
# Experimental: (§1) 103 patients were enrolled in the study, including 40 with MCL and 63 with iNHL. Among patients with iNHL, all 4 subtypes were represented. Patients were heavily treated with chemoimmunotherapy. Patients had received a median of 4 prior regimens and some had received as many as 14 prior regimens. Most patients had received several types of chemoimmunotherapy for NHL. Disease was commonly refractory to available therapies.
# (§2) Patients were treated over a broad range of doses of Compound A using once-per-day (QD) and twice-per-day (BID) continuous and intermittent schedules. Patients remained on therapy for protracted periods; many patients with iNHL continued on treatment beyond 12 cycles (48 weeks).
# (§3) Prior to treatment, the concentration of CCL17, CCL22, CXCL13, and TNF-alpha was evaluated. On the last day of the cycle, the plasma concentration of the chemokines and TNF-alpha was re-assessed. Table 3 (for MCL) and Table 4 (for iNHL) below summarize the chemokine and TNF-alpha concentration at the baseline and at Day 28 of the cycle.
# PI3Kalpha = PI3Kalpha (Mus musculus, UniProt P42337); test: Isoform specific cell-based assay: PDGF induced pAKT in fibroblast cell line (Swiss-3T3); conditions: n = 12
# Experimental: (§4) Swiss-3T3 fibroblasts and RAW-264 were seeded on a 96-well tissue culture plate and allowed to reach at least 90% confluency. […] Akt phosphorylation and total AKT was detected by ELISA. Purified B-cells were treated with either vehicle or serial dilutions of compound I for 30 minutes at room temperature before the addition of purified goat anti-human IgM. Results are expressed as relative [^3H] thymidine incorporation induced by IgM crosslinking.
# [4] = tested on: CCL17, CCL22, CXCL13 and TNF-alpha levels in iNHL patients; test: Plasma chemokine and TNF-alpha levels and tumor size in iNHL patients, pre-treatment vs Day 28; assay type: in vivo, human
# Experimental: as §1, §2, §3
# [5] = tested on: BCR-induced secretion of CCL3 and CCL4 by CLL cells; test: BCR-induced (anti-IgM) secretion of chemokines CCL3 and CCL4 by CLL cells, ELISA of supernatants; assay type: cell-based; conditions: medium with anti-IgM plus compound, 24 hours, anti-IgM alone raised levels roughly 5 to 6 fold
# PI3Kγ = target: T1, PI3Kγ (Mus musculus, UniProt Q9JHG7); test: Isoform specific cell-based assay: C5a induced pAKT in monocyte cell line (RAW-264); conditions: n = 11
# T1 construct: endogenous in cells; host or cells: RAW-264 monocyte cell line
# Experimental: as §4
# Sequence of PI3Kalpha (P42337 whole entry, canonical isoform): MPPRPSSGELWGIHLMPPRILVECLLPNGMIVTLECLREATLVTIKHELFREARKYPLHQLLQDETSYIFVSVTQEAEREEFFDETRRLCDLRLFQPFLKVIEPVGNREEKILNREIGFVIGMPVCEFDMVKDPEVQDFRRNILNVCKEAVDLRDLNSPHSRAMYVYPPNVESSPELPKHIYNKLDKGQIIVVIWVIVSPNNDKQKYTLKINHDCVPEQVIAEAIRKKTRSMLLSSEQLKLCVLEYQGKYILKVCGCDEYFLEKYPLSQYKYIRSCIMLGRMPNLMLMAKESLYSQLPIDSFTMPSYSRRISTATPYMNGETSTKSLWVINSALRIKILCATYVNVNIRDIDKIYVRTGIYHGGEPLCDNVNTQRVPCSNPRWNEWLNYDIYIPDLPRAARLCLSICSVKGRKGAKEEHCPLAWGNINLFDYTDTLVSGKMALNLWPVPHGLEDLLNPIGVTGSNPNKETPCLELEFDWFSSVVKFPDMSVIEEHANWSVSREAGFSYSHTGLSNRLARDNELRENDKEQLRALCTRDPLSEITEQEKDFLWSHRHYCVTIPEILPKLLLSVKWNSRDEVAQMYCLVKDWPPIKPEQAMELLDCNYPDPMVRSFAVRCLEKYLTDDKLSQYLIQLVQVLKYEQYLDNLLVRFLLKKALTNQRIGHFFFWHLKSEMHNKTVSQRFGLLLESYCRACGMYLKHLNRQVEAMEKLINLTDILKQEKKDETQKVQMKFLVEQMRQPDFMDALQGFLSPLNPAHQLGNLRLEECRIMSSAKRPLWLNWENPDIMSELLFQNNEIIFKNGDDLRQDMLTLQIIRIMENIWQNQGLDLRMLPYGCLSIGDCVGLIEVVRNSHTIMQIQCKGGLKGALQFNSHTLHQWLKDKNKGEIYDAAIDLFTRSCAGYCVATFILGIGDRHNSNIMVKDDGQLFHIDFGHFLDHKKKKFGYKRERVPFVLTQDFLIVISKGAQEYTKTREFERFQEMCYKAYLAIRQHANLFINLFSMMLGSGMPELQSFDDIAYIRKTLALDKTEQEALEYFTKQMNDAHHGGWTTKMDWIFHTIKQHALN
# Sequence of PI3Kalpha (P26450 whole entry partner, canonical isoform): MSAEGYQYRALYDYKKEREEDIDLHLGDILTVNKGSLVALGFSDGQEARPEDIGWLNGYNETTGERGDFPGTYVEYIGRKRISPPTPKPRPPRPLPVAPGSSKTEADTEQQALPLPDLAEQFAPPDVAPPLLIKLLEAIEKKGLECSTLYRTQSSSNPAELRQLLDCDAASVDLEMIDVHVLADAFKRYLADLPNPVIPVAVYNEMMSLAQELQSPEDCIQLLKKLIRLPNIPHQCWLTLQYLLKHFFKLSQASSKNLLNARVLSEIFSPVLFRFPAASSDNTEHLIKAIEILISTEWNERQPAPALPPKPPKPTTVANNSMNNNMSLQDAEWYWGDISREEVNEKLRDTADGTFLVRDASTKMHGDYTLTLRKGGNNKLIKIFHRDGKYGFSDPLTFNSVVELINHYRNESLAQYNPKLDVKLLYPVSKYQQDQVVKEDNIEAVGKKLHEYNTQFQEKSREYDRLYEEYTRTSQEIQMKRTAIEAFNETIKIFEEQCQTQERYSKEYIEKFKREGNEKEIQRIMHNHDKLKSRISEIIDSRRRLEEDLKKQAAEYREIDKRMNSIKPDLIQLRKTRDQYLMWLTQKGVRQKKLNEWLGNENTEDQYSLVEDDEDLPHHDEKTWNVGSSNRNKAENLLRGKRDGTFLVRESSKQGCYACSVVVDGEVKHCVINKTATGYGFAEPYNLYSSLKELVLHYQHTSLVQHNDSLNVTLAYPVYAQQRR
# T1 sequence (Q9JHG7 whole entry, canonical isoform): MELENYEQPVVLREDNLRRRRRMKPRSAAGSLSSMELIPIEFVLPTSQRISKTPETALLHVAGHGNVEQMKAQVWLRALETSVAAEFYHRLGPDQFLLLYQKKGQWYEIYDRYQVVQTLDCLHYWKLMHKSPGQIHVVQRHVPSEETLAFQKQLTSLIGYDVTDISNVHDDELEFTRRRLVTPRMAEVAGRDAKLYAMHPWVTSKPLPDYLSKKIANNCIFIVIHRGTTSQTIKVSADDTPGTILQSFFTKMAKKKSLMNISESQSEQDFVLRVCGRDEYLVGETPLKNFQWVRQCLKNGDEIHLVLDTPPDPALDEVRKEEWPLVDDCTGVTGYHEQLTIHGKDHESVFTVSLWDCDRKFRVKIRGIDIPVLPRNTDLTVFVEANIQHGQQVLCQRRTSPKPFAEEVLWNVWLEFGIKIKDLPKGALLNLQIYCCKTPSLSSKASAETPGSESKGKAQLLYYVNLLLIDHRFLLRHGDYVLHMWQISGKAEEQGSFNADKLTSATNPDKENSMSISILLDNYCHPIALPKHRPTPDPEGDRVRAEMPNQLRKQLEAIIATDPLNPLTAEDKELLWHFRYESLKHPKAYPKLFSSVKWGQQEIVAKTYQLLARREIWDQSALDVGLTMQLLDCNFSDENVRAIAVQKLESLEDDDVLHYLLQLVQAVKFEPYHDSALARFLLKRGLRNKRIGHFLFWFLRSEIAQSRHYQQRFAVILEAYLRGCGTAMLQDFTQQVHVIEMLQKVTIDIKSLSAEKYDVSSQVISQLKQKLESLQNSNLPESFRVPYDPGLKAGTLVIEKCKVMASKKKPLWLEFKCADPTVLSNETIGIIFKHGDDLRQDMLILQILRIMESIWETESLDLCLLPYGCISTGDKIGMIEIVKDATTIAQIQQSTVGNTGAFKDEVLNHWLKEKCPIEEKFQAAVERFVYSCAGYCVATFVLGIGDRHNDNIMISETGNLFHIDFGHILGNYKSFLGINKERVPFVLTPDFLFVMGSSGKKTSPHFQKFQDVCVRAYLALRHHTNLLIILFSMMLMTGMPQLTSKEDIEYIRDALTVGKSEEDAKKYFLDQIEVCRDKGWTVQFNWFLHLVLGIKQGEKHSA
# T1 sequence (Q5SW28 whole entry partner, canonical isoform): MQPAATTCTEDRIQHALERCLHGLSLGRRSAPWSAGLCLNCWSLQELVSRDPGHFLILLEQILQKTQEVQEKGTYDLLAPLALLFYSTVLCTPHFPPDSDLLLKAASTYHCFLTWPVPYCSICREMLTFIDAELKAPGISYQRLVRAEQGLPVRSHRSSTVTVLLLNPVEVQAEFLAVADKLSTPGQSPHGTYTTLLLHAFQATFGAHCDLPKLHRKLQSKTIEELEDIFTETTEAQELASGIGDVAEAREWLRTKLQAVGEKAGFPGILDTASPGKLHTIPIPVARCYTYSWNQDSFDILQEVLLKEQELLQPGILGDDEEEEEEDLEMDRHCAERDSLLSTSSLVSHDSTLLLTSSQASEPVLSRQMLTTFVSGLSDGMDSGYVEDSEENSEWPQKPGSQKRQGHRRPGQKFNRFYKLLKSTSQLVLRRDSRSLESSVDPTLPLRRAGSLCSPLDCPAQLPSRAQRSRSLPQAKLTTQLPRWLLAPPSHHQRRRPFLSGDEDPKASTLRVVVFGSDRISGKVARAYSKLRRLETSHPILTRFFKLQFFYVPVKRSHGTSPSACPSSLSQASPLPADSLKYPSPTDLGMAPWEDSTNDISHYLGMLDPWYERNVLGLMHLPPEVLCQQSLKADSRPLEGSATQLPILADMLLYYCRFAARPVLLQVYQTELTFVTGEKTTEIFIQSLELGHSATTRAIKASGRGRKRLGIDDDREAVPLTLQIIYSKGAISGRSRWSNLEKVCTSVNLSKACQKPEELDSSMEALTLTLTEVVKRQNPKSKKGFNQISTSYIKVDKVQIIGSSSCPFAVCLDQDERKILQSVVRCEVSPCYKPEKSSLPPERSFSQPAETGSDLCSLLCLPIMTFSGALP
smiles,measurement,setting,value
"CC[C@H](Nc1ncnc2[nH]cnc12)c1nc2cccc(F)c2c(=O)n1-c1ccccc1 [Compound A, (S)-2-(1-(9H-purin-6-ylamino)propyl)-5-fluoro-3-phenylquinazolin-4(3H)-one]",clinical activity (lymphadenopathy),"[1]; 50 to 350 mg BID, 28-day dosing period",decrease in lymphadenopathy
same,CCL3 plasma concentration,"[1]; Day 28 of cycle 1, 50 to 350 mg BID, average (baseline 186)",29 pg/mL
same,CCL4 plasma concentration,"[1]; Day 28 of cycle 1, 50 to 350 mg BID, average (baseline 303)",70 pg/mL
same,CXCL13 plasma concentration,"[1]; Day 28 of cycle 1, 50 to 350 mg BID, average (baseline 316)",40 pg/mL
same,% reduction of CCL3,[1]; Day 28 vs baseline,84%
same,% reduction of CCL4,[1]; Day 28 vs baseline,77%
same,% reduction of CXCL13,[1]; Day 28 vs baseline,87%
same,"decrease of the concentration of CCL3, CCL4 and CXCL13","[1]; first week of dosing, across all dose levels evaluated (50 to 350 mg BID)",2 to 5 fold
same,"change from predose to Day 28 of CCL3, CCL17 and TNF-alpha, responders vs non-responders",[2],significantly greater for individuals that responded to the drug than those that did not
same,TNF-alpha plasma concentration,[3]; Day 28 (pre-treatment 65),37 pg/mL
same,CCL17 plasma concentration,[3]; Day 28 (pre-treatment 194),60 pg/mL
same,CXCL13 plasma concentration,[3]; Day 28 (pre-treatment 437),227 pg/mL
same,CCL22 plasma concentration,[3]; Day 28 (pre-treatment 2593),1286 pg/mL
same,% reduction of CCL17,[3]; Day 28 vs pre-treatment,69%
same,% reduction of CCL22,[3]; Day 28 vs pre-treatment,50%
same,% reduction of CXCL13,[3]; Day 28 vs pre-treatment,48%
same,% reduction of TNF-alpha,[3]; Day 28 vs pre-treatment,43%
same,clinical activity (tumor size),[3]; FIG. 4a,reduction in tumor size
same,EC50,PI3Kalpha,> 20 µM
same,TNF-alpha plasma concentration,[4]; Day 28 (pre-treatment 41),19 pg/mL
same,CCL17 plasma concentration,[4]; Day 28 (pre-treatment 234),88 pg/mL
same,CXCL13 plasma concentration,[4]; Day 28 (pre-treatment 470),161 pg/mL
same,CCL22 plasma concentration,[4]; Day 28 (pre-treatment 2602),1166 pg/mL
same,% reduction of CCL17,[4]; Day 28 vs pre-treatment,62%
same,% reduction of CCL22,[4]; Day 28 vs pre-treatment,55%
same,% reduction of CXCL13,[4]; Day 28 vs pre-treatment,66%
same,% reduction of TNF-alpha,[4]; Day 28 vs pre-treatment,54%
same,clinical activity (tumor size),[4]; FIG. 4b,reduction in tumor size
same,CCL3 and CCL4 secretion by anti-IgM stimulated CLL cells,[5],effective suppression of chemokine secretion to levels nearing the control values
same,EC50,PI3Kγ,3.89 µM
